Experimental data as given in US12043612B2, “Methods of manufacturing a bifunctional compound, ultrapure forms of the bifunctional compound, and dosage forms comprising the same” (Arvinas Operations, Inc., priority 2020, dated 2024).
In brackets after ≈: the same amount, converted by molar mass. Read-outs that look alike come from different tables or passages of the source.

What was measured:
[1] = Solubility of Compound A in solvents at 24° C. ± 3° C., 24 h; format: physicochemical; conditions: organic solvent or mixture, thermodynamic from solid
Description: (§1) This batch was prepared for use in the 28-day good laboratory practice (GLP) toxicology studies using the same synthetic scheme and processing employed in preparation of active pharmaceutical ingredient (API) to be used in the clinical drug product.

pKa of Compound A = format: physicochemical
Description: as §1

[2] = Solubility in pH 6.5 simulated intestinal fluid (SIF); format: physicochemical
BCS designation = conditions: low solubility, low permeability

For `N#Cc1ccc(O[C@H]2CC[C@H](NC(=O)c3ccc(N4CCC(CN5CCN(c6cc7c(cc6F)C(=O)N(C6CCC(=O)NC6=O)C7=O)CC5)CC4)nn3)CC2)cc1Cl` (stereo partly shown) [Compound A, N-[(1r,4r)-4-(3-chloro-4-cyanophenoxy)cyclohexyl]-6-[4-({4-[2-(2,6-dioxopiperidin-3-yl)-6-fluoro-1,3-dioxo-2,3-dihydro-1H-isoindol-5-yl]piperazin-1-yl}methyl)piperidin-1-yl]pyridazine-3-carboxamide], the solubility at 24 h ([1]; Acetonitrile, read-out: Solubility, Conc. (mg/mL), 24 h) was 0.79 mg/mL (≈ 973 µM), the solubility at 24 h ([1]; Dichloromethane, read-out: Solubility, Conc. (mg/mL), 24 h) was 25.1 mg/mL (≈ 30900 µM) and the solubility at 24 h ([1]; Dichloromethane/methanol, read-out: Solubility, Conc. (mg/mL), 24 h) was 100 mg/mL (≈ 123000 µM). The solubility at 24 h ([1]; Ethanol, read-out: Solubility, Conc. (mg/mL), 24 h) was 0.08 mg/mL (≈ 98.5 µM), the solubility at 24 h ([1]; Ethyl acetate, read-out: Solubility, Conc. (mg/mL), 24 h) was 0.2 mg/mL (≈ 246 µM) and the solubility at 24 h ([1]; Methanol, read-out: Solubility, Conc. (mg/mL), 24 h) was 0.29 mg/mL (≈ 357 µM). The solubility at 24 h ([1]; Polyethylene glycol-300, read-out: Solubility, Conc. (mg/mL), 24 h) was 2.8 mg/mL (≈ 3450 µM), the solubility at 24 h ([1]; Propylene glycol, read-out: Solubility, Conc. (mg/mL), 24 h) was 0.75 mg/mL (≈ 923 µM) and the pKa1 (pKa of Compound A) was “pKa1 = 6.8”. The pKa2 (pKa of Compound A) was “pKa2 = 2.7”, the solubility ([2]; fassif, thermodynamic from solid, pH 6.5 simulated intestinal fluid (SIF), read-out: crystalline solid's solubility) was 1.2 µg/mL (≈ 1.48 µM) and the solubility ([2]; pH 6.5, fassif, read-out: amorphous solubility in SIF) was 30 µg/mL (≈ 36.9 µM). For the same compound, the BCS designation (BCS designation) was “BCS IV”.
